ChEMBL document CHEMBL1201862, “PubChem BioAssay data set” (2004)
Activity calls are given as the source filed them.

Legend:
Beta-galactosidase = Beta-galactosidase (Escherichia coli, UniProt Q8VNN2); experiment: Dose response counterscreen for EBI2 assay utilizing the enzyme, b-galactosidase.; format: functional
[1] = target: T1, RNA-binding protein pos-1 (Caenorhabditis elegans, UniProt G5EF15); experiment: inhibitors of POS-1/mex-3 RNA binding, dose response, biochemical, fluorescence polarization (AID 1964);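 also: purified POS-1 fused to maltose binding protein made in E. coli; potency of compounds blocking POS-1 binding to fluorescent RNA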
T1 sequence (G5EF15 whole entry): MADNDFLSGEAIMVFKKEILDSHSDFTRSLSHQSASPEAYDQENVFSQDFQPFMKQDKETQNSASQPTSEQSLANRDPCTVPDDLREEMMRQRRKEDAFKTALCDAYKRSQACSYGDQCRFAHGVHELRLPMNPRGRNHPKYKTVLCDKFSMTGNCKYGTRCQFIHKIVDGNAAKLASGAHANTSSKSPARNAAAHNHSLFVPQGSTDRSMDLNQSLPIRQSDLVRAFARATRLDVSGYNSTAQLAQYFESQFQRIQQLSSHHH

[2] = target: T2, Zinc finger protein mex-5 (Caenorhabditis elegans, UniProt Q9XUB2); experiment: MEX-5/TCR-2 RNA interaction inhibitors, dose response, biochemical, C. elegans, fluorescence polarization (AID 1960)
T2 sequence (Q9XUB2 whole entry): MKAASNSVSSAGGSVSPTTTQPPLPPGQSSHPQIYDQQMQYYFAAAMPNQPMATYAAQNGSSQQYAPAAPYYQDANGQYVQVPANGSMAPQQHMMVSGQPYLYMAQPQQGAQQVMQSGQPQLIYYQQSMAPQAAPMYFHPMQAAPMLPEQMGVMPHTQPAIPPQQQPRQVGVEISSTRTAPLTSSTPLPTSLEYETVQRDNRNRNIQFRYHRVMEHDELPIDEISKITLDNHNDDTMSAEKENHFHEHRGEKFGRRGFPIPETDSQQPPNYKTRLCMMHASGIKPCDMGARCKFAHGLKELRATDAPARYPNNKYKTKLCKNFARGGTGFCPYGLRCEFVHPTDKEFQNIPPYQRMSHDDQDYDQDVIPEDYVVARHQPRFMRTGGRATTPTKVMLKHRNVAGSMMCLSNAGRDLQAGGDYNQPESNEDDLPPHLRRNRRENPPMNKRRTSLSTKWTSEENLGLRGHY

Large T antigen = Large T antigen (Simian virus 40, UniProt P03070); format: functional, Betapolyomavirus macacae;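 also: Confirmatory-stage PubChem screen for compounds that inhibit SV40 T antigen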
[3] = target: DNA dC->dU-editing enzyme APOBEC-3A (Homo sapiens, UniProt P31941); experiment: Dose Response confirmation of small molecule APOBEC3A DNA Deaminase Inhibitors via a fluorescence-based single-stranded DNA deaminase assay. [Related pubchem assays (depositor defined):AID493011, AID493024]; format: functional
[4] = target: DNA dC->dU-editing enzyme APOBEC-3G (Homo sapiens, UniProt Q9HC16); format: functional;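 also: Dose-response counterscreen measuring inhibition of APOBEC3G DNA deaminase activity, run while confirming APOBEC3A inhibitors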
[5] = target: T3, Small ubiquitin-related modifier 1 (Homo sapiens, UniProt P63165); experiment: inhibitors of SUMO1 peptide binding, dose response, biochemical, fluorescence polarization, uHTS hits (AID 624382); format: functional; conditions: read-out: IC50_Mean
[6] = target: T3, Small ubiquitin-related modifier 1; experiment: inhibitors of SUMO1 partner interactions, dose response, biochemical, FRET (AID 624383); format: functional; conditions: read-out: IC50_Mean
Caspase-6 = target: T4, Caspase-6 (Homo sapiens, UniProt P55212); experiment: human caspase-6 inhibitors, dose response, biochemical, VEID-R110 fluorescence, cherry-pick (AID 720632)
T4 sequence (P55212 whole entry): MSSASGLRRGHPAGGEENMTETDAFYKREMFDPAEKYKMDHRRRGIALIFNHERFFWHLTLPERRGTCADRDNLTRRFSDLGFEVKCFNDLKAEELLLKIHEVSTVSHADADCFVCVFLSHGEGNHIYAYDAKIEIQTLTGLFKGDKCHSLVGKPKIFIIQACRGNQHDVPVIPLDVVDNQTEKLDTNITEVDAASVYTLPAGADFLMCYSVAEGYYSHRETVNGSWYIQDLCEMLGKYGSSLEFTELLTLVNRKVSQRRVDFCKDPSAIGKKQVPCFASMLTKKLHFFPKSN

[7] = target: T5, Histone-lysine N-methyltransferase NSD2 (Homo sapiens, UniProt O96028); format: biochemical
T5 sequence (O96028 whole entry): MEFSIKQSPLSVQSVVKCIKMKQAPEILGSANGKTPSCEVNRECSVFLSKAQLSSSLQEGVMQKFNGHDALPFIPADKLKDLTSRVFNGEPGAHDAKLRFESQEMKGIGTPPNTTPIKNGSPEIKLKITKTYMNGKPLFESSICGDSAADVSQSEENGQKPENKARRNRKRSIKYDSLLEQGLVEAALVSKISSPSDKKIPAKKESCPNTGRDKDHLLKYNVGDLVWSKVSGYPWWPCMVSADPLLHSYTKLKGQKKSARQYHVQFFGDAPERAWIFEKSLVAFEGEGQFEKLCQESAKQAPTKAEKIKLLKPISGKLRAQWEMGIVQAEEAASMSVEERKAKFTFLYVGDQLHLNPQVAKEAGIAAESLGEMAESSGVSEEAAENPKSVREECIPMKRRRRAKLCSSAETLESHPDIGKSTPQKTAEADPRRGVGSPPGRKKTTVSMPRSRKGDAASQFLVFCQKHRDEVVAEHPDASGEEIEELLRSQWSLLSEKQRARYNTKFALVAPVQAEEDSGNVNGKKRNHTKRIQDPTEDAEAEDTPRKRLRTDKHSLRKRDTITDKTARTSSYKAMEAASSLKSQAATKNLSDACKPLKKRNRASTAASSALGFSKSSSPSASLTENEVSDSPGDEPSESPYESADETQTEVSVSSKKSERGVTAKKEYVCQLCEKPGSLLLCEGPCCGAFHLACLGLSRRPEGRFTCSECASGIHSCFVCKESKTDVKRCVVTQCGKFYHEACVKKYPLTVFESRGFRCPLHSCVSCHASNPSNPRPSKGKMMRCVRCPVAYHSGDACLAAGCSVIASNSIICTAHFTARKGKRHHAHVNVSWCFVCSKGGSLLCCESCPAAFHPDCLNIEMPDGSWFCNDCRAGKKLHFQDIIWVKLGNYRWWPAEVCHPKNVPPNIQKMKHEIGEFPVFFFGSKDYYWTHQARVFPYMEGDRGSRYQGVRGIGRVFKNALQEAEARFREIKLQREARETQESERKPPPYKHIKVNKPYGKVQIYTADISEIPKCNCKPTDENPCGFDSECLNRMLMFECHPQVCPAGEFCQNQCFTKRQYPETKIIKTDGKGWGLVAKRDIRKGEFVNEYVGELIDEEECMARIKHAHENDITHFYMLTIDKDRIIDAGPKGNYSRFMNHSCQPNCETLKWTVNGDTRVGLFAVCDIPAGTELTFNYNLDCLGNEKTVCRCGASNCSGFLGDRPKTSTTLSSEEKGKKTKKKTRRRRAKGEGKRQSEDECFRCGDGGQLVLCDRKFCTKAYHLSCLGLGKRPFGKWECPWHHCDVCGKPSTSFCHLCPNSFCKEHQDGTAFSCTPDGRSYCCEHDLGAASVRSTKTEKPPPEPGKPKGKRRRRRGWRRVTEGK

cells [8] = format: functional, cell-based
[9] = target: T6, Trace amine-associated receptor 1 (Homo sapiens, UniProt Q96RJ0); experiment: Fluorescence-based cell-based high throughput dose response assay to identify agonists of the human trace amine associated receptor 1 (TAAR1).; format: functional
T6 sequence (Q96RJ0 whole entry): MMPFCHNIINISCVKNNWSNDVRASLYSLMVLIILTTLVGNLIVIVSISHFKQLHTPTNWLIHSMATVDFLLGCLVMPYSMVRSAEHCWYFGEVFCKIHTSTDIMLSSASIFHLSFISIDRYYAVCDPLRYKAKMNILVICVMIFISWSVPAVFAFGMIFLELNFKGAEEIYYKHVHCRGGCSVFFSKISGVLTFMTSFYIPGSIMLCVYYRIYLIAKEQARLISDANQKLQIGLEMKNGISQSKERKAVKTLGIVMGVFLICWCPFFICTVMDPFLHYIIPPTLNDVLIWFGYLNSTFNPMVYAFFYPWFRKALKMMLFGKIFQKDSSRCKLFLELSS

[10] = target: T6, Trace amine-associated receptor 1; experiment: Counterscreen for agonists of the human trace amine associated receptor 1 (hTAAR1): Fluorescence-based cell-based high throughput dose response assay to identify hTAAR1 agonist that also desensitize TAAR1 receptor response.; format: functional
cells [11] = format: functional, cell-based; remark: listed apart in the source
[12] = T. cruzi growth inhibition in host cells, dose response, cell-based, plate reader, dry powder, set 2 (AID 652275); format: functional
Vero = experiment: Vero cell toxicity, dose response, cytotoxicity control, plate reader, cherry-pick samples (AID 687020); format: functional, cell-based; conditions: Chlorocebus sabaeus
[13] = target: FAD-linked sulfhydryl oxidase ALR (Homo sapiens, UniProt P55789); experiment: inhibitors of human ALR sulfhydryl oxidase, dose response, biochemical, H2O2 detection, luminescence, cherry-pick (AID 493248)
P388/ADR = experiment: cells; format: functional; conditions: Mus musculus
SN12K1 = experiment: cells; format: functional; conditions: Homo sapiens
P388 = experiment: cells; format: functional; conditions: Mus musculus
[14] = target: Endoplasmic reticulum aminopeptidase 1 (Homo sapiens, UniProt Q9NZ08); experiment: ERAP1 aminopeptidase inhibitors, dose response, biochemical, cherry-pick, set 2, plate reader (AID 743314)
Cytochrome P450 1A2 = target: T7, Cytochrome P450 1A2 (Homo sapiens, UniProt P05177);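 also: PubChem cytochrome P450 panel assay, CYP1A2 panel member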
T7 sequence (P05177 whole entry): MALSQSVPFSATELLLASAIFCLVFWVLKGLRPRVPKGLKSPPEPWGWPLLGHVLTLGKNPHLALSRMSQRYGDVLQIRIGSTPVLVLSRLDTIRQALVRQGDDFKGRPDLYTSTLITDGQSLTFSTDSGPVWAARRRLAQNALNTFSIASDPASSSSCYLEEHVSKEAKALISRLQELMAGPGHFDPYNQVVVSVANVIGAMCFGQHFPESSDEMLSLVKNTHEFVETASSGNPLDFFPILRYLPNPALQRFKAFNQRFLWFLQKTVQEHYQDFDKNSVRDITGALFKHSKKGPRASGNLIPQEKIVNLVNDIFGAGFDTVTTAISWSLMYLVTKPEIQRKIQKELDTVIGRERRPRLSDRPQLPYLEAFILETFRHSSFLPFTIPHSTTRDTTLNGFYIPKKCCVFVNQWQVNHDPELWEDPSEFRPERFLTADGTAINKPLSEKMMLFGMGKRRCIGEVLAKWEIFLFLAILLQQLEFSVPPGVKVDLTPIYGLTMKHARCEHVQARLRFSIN

[15] = HEp-2 cell cytotoxicity, dose response, cytotoxicity control for RSV inhibitor project, HTS (AID 2410); format: functional; conditions: human respiratory syncytial virus

T3 sequence (P63165 whole entry): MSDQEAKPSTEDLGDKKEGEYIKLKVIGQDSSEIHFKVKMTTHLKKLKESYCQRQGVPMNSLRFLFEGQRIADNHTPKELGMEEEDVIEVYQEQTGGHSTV
Chain of Beta-galactosidase (Q8VNN2 whole entry, the tested form may be a part): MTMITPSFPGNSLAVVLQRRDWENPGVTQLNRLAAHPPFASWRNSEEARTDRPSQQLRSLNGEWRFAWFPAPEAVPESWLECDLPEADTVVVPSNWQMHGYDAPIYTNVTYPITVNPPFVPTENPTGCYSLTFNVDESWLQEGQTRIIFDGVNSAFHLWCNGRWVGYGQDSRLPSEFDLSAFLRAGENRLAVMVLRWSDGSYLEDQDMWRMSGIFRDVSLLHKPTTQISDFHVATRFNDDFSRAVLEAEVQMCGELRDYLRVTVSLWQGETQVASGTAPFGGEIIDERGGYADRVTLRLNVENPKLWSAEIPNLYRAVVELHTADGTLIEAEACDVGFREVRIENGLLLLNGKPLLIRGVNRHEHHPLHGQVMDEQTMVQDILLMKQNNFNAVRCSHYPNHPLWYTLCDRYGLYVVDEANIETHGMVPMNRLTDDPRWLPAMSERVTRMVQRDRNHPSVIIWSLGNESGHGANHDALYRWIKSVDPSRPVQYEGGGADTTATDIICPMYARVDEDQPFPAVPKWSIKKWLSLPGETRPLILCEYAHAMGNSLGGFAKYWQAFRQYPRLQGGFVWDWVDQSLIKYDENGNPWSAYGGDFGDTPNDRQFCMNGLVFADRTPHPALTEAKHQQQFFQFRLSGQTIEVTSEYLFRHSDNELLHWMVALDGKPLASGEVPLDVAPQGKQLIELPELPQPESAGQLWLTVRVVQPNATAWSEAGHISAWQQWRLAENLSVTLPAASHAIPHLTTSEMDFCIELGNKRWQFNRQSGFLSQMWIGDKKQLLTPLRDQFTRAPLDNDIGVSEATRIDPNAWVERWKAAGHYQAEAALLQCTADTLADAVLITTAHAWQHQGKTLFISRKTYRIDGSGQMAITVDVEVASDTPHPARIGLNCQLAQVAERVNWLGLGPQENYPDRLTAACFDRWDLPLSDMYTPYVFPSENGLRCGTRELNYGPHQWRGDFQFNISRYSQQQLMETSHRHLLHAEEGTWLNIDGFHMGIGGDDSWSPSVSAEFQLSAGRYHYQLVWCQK
Chain of Endoplasmic reticulum aminopeptidase 1 (Q9NZ08 whole entry): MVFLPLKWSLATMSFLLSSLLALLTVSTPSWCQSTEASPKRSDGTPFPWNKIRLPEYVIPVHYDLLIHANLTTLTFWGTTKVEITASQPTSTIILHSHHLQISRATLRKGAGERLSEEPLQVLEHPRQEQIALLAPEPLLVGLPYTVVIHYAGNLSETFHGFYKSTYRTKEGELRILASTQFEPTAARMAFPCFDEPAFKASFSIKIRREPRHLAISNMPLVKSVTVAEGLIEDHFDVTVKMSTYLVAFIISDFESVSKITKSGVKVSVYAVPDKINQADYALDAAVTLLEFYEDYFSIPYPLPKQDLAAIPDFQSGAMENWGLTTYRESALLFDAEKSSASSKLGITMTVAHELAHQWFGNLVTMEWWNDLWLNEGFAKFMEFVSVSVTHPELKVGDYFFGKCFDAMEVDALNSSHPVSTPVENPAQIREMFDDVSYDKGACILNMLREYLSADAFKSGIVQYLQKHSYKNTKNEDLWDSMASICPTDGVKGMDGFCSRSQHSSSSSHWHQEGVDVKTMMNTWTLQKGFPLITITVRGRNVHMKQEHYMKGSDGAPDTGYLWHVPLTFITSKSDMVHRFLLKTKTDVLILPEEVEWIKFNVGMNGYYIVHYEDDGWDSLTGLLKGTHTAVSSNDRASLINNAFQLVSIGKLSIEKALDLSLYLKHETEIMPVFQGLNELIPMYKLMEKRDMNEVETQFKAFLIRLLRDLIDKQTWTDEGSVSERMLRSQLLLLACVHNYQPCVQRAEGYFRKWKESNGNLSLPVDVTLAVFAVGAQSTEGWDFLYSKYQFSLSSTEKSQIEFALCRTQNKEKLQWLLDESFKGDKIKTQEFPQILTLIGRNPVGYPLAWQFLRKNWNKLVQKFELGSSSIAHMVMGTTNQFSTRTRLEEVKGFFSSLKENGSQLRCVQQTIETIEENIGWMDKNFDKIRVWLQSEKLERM
Chain of DNA dC->dU-editing enzyme APOBEC-3A (P31941 whole entry): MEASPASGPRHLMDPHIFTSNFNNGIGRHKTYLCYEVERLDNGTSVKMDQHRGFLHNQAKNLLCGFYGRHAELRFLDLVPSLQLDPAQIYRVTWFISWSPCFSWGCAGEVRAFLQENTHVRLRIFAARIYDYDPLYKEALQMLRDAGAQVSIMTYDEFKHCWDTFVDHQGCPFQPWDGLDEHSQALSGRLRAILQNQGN
Chain of DNA dC->dU-editing enzyme APOBEC-3G (Q9HC16 whole entry): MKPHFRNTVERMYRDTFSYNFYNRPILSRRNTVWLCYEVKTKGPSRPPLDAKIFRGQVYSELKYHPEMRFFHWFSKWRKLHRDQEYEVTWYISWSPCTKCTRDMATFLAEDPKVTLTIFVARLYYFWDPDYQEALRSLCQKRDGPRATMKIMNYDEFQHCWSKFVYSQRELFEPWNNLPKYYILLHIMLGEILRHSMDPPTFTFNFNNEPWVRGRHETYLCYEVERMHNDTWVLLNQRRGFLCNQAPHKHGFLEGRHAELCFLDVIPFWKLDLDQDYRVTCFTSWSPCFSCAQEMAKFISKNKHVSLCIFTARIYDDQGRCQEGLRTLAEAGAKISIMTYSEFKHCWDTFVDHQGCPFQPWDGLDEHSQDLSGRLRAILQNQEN
Chain of Large T antigen (P03070 whole entry): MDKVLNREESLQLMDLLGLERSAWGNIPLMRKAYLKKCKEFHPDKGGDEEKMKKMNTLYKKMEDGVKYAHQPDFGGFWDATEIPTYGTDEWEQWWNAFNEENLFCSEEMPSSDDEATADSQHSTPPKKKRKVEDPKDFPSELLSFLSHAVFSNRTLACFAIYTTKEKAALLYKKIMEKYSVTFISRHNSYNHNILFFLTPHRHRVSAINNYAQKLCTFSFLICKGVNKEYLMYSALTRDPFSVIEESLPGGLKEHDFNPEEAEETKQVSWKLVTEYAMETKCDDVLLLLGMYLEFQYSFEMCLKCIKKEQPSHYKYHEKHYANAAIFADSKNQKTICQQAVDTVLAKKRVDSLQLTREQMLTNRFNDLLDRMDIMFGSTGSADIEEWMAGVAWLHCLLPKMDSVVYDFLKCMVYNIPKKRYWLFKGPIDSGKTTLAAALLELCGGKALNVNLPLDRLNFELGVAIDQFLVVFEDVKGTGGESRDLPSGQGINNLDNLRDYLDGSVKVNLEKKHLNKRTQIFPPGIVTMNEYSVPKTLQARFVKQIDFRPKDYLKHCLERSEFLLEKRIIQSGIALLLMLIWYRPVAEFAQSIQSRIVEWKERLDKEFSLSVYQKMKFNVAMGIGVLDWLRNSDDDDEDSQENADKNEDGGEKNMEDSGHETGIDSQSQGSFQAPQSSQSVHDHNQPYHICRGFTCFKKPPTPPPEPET
Chain of FAD-linked sulfhydryl oxidase ALR (P55789 whole entry): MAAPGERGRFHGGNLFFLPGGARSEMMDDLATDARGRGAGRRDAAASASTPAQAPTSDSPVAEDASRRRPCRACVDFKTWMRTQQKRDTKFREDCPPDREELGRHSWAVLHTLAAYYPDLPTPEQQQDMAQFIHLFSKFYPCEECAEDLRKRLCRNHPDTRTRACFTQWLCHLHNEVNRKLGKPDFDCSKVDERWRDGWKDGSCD

Compound: O=C(CSc1nnc(-c2ccc(O)cc2)n1Cc1ccccc1)NNC(=O)c1ccc(Br)cc1
- IC50 (Beta-galactosidase): > 80 µM (inactive)

Compound: Nc1ccc(Nc2ccccc2)c(S(=O)(=O)O)c1
- EC50 [1]: 108 µM (active)
- EC50 [2]: 34 µM (active)
- IC50 (Large T antigen): 7.15 µM (active)
- IC50 [3]: 16.5 µM (active)
- IC50 [4]: 34.1 µM (active)
- IC50 [5]: > 66.6 µM (inactive)
- IC50 [6]: 12.8 µM (active)
- AC50 (Caspase-6): 1.22 µM (active)
- AC50 [7]: 8.41 µM (active)

Compound: COc1cccc(C(=O)N[C@@H](Cc2cccnc2)C(=O)N2CCC[C@H]2C(=O)NCCc2ccccc2Cl)c1
- IC50 (cells [8]): > 29.9 µM (inactive)
- EC50 [9]: 2.18 µM (active)
- IC50 [10]: 4.58 µM (active)
- EC50 (cells [11]): > 29.9 µM (inactive)

Compound: O=C(Nc1ccccc1)Nc1ccno1
- IC50 (cells [8]): > 29.9 µM (inactive)
- EC50 [9]: 4.65 µM (active)
- IC50 [10]: 4.63 µM (active)
- EC50 (cells [11]): > 29.9 µM (inactive)

Compound: CC(C)N1C[C@@H](CNCc2ccc(Oc3ccccc3)cc2)Oc2c(NC(=O)c3ccncc3)cccc2C1=O
- AC50 [12]: 6.66 nM (active)

Compound: O=C(c1cc2ccccc2o1)N1CCN(S(=O)(=O)c2ccc(Cl)s2)CC1
- IC50 (Beta-galactosidase): > 80 µM (inactive)

Compound: Cc1cccc(-c2ccc([C@H]3[C@H](CO)N4CCCCN(Cc5cncnc5)C[C@@H]34)cc2)c1
- AC50 [12]: 198 nM (active)

Compound: C#CCNC(=O)C[C@@H]1C[C@@]2(C(=O)OC)CCCCC=C2N(Cc2cccc3ccccc23)C1=O
- AC50 (Vero): 36.6 µM (active)

Compound: COc1cc2ccc(=O)oc2cc1O [SCOPOLETIN]
- AC50 [13]: 4.4 µM (active)
- GI50 (P388/ADR): 12.5 µM (inactive)
- GI50 (SN12K1): 19.4 µM (inactive)
- GI50 (P388): 5.55 µM (inactive)
- AC50 [14]: 5.79 µM (active)
- AC50 (Cytochrome P450 1A2): 5.01 µM (inconclusive)

Compound: COc1ccc(C(CNC(=O)COc2cc(C)ccc2Cl)N2CCCCC2)cc1 (configuration not stated)
- AC50 (Vero): 17.6 µM (active)

Compound: C[C@H]1CN([C@@H](C)CO)C(=O)c2cccc(NC(=O)c3ccncc3)c2O[C@@H]1CN(C)Cc1ccc(F)c(Cl)c1
- AC50 [12]: 1.98 nM (active)

Compound: COCCNc1nc(Nc2ccccc2Cl)c2sccc2n1
- AC50 (Vero): 6.94 µM (active)

Compound: O=C(O)C1C2CCC(C2)C1C(=O)NCCc1ccc(F)cc1 (configuration not stated)
- IC50 (cells [8]): > 29.9 µM (inactive)
- EC50 [9]: 14.8 µM (inactive)
- IC50 [10]: > 29.9 µM (inactive)
- EC50 (cells [11]): > 29.9 µM (inactive)

Compound: Cc1c(-c2ccccc2)c(=O)oc2cc(O)ccc12
- CC50 [15]: 42.4 µM (active)
- AC50 [14]: 4.79 µM (active)
